{"source": "patent US5929236A", "about": "“2-substituted morpholine and thiomorpholine derivatives as GABA-B antagonists” (Schering Corporation, priority 1995, dated 1999)", "key": {"GABAB receptors": {"target": "T1, GABAB receptors (Rattus norvegicus, UniProt Q9Z0U4)", "T1 construct": "Rat brain synaptosomes are used as a source of GABAB receptors; from tissue; host or cells: rat brain synaptosomes", "T1 sequence (Q9Z0U4 17-960 limits assumed)": "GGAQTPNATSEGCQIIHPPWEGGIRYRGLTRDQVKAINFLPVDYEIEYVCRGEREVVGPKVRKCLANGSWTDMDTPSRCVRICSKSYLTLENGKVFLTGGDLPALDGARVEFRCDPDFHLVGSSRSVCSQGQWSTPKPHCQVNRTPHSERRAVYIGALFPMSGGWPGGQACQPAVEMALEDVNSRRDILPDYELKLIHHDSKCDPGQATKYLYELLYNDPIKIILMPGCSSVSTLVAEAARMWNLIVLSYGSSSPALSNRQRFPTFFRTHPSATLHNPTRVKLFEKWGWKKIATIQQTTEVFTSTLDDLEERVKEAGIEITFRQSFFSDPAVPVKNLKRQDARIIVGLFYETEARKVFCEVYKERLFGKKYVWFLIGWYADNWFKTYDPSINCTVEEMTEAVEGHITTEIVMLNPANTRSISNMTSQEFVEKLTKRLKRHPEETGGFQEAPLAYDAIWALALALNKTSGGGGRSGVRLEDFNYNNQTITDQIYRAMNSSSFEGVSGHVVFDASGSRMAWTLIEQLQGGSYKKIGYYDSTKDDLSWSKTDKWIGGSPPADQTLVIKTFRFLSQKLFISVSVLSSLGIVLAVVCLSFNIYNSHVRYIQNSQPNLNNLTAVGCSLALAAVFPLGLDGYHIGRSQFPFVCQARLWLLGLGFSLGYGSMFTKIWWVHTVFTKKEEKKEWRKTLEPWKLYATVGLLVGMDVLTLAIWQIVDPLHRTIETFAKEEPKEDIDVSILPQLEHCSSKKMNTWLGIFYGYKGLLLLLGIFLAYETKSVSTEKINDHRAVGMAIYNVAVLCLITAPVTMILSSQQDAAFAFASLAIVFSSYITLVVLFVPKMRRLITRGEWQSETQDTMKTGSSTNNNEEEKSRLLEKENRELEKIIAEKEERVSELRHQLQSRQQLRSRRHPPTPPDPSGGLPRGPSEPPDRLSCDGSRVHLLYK", "T1 sequence (O88871 41-940 partner)": "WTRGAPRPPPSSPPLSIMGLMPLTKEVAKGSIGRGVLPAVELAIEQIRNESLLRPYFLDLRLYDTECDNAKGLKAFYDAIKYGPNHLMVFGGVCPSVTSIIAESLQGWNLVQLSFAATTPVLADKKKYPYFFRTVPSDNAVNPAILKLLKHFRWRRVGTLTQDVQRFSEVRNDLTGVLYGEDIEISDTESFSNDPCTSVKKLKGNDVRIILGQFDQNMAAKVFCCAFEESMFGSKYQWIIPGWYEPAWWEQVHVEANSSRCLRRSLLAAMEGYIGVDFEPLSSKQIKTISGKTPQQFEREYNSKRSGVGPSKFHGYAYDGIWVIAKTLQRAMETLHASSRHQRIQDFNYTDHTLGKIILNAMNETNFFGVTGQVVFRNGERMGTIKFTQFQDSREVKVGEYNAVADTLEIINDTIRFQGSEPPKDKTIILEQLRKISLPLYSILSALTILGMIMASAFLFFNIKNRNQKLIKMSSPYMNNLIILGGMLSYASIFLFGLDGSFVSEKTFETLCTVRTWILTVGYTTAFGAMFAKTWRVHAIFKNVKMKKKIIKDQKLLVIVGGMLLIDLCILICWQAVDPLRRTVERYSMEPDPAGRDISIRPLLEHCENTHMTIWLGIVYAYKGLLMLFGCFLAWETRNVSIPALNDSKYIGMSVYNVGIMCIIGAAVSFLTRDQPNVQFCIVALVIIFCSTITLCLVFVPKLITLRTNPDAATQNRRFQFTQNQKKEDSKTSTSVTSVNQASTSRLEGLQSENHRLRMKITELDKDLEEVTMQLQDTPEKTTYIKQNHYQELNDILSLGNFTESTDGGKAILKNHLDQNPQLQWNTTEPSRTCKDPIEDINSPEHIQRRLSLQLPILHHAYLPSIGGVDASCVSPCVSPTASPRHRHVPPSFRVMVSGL", "experiment": "GABAB Receptor Binding Assay ([3H]GABA, rat brain synaptosomes)", "conditions": "5 nM [3H]GABA, rat brain synaptosomes, 20° C., 30 min", "procedure": "GABAB Receptor Binding Assay\nThe percentage inhibition of GABA binding to GABAB receptors is measured by tritiated GABA ([^3 H]GABA) determination of the degree of binding by scintillation counting. Rat brain synaptosomes are used as a source of GABAB receptors. An incubation medium is prepared from the following: 20 μg/mL of the compound to be tested as a solution in 1% DMSO/water; 5 nM [^3 H]GABA; 50 mM Tris buffer (pH 7.5); and 2.5 mM CaCl2. The medium also contains 40 μM isoguvacine to selectively block binding to GABAA receptors. The synaptosome (200 μg/mL) is added to the incubation medium and incubated for 30 minutes at 20° C. The incubation is terminated by filtration and counted to determine the percentage inhibition of [^3 H]-GABA binding. The results are reported as IC50 values for those compounds inhibiting [^3 H]-GABA binding by >50%."}, "[1]": {"tested_on": "Respiratory Depressant Effect of Baclofen", "experiment": "Inhibition of Respiratory Depressant Effect of Baclofen", "assay_type": "in vivo, guinea pig", "conditions": "for % Inhibition: mean ± SEM; for ED50: Cavia porcellus", "procedure": "Animal Model for Respiratory Depression:\nPlace unanesthetized guinea pigs in a head-out plethysmograph and expose to a CO2 enriched gas mixture (10% CO2, 21% O2, 69% N2) for 10 min., (see Danko, et al., J. Pharm. Methods, 19, 165-173 (1988)). Plethysmograph pressure is detected with a transducer connected to a chart recorder. Minute ventilation is calculated as the product of tidal volume and respiratory frequency. The compound to be tested is administered orally, subcutaneously (sc), intraperitoneally (ip) or via an intracerebroventricular route (icv). Baclofen (3 mg/kg, sc) was given 30 min before exposure to the CO2 enriched gas. […] A 40 or 30 min. preteratment is used for the subcutaneous and intraperitoneal routes, respectively. The vehicle for oral, sc or ip administration is saline. For icv administration, single icv cannulae are placed in the lateral ventricle of anesthetized guinea pigs, (see McLeod, et al., Eur. J. Pharmacol., 209, 141-142 (1988)). The animals are allowed to recover approximately one week prior to use for ventilation experiments. The vehicle for icv administration is artificial cerebrospinal fluid (CSF)."}}}
{"smiles": "CC1(C)COC(CC(=O)O)CN1", "note": "(single isomer, unassigned) [Example 6A]", "values": [{"measurement": "IC50", "setting": "GABAB receptors", "value": 2000, "unit": "nM"}, {"measurement": "% Inhibition", "setting": "[1]; 0.3 mg/kg ip", "value": "39 ± 10", "unit": "%"}, {"measurement": "% Inhibition", "setting": "[1]; 0.3 mg/kg sc", "value": "27 ± 6", "unit": "%"}, {"measurement": "% Inhibition", "setting": "[1]; 1.0 mg/kg ip", "value": "32 ± 7", "unit": "%"}, {"measurement": "% Inhibition", "setting": "[1]; 1.0 mg/kg oral, 60 min prior to baclofen", "value": "36 ± 13", "unit": "%"}, {"measurement": "% Inhibition", "setting": "[1]; 1.0 mg/kg sc", "value": "66 ± 7", "unit": "%"}, {"measurement": "% Inhibition", "setting": "[1]; 3.0 mg/kg ip", "value": "59 ± 7", "unit": "%"}, {"measurement": "% Inhibition", "setting": "[1]; 3.0 mg/kg oral, 60 min prior to baclofen", "value": "51 ± 13", "unit": "%"}, {"measurement": "% Inhibition", "setting": "[1]; 3.0 mg/kg sc", "value": "97 ± 25", "unit": "%"}, {"measurement": "% Inhibition", "setting": "[1]; 10 mg/kg ip", "value": "100 ± 9", "unit": "%"}, {"measurement": "% Inhibition", "setting": "[1]; 10 mg/kg oral, 60 min prior to baclofen", "value": "68 ± 13", "unit": "%"}, {"measurement": "% Inhibition", "setting": "[1]; 10 mg/kg sc", "value": "99 ± 11", "unit": "%"}, {"measurement": "% Inhibition", "setting": "[1]; 30 mg/kg oral, 60 min prior to baclofen", "value": "78 ± 29", "unit": "%"}, {"measurement": "ED50", "setting": "[1]; ip", "value": 1.9, "unit": "mg/kg"}, {"measurement": "ED50", "setting": "[1]; sc", "value": 0.63, "unit": "mg/kg"}, {"measurement": "ED50", "setting": "[1]; oral, 60 min prior to baclofen", "value": 3, "unit": "mg/kg"}]}
